Source: patent US8153390B2, “FRET-based binding assay” (Roche Palo Alto LLC, priority 2009, dated 2012)

Columns and labels:
BTK-Btn [1] = biological target: T1, BTK-Btn (Homo sapiens, UniProt Q06187); assay: TR-FRET competition binding assay, BTK-Btn with tracer AF647-staur; details: read-out: FRET IC50, 0.5 nM BTK-Btn, 0.5 nM Eu-strept
BTK-Btn [2] = biological target: T1, BTK-Btn; assay: TR-FRET competition binding assay, BTK-Btn with tracer TR 178 (low tracer / low kinase); set-up: 6xHis (N); made in house; host or cells: Sf-9 insect cells (baculovirus)
BTK = biological target: T2, BTK (Homo sapiens, UniProt Q06187); assay: Enzymatic assay for BTK (Caliper, peptide substrate); type: biochemical; details: 5 nM BTK, 100 μM ATP; for IC50: […] peptide substrate, read-out: Enzyme IC50
T2 construct: mixed with 26 μL of purified full length BTK (final concentration of 5 nM); purchased Invitrogen (Carlsbad, Calif.)
T2 sequence (Q06187 whole entry): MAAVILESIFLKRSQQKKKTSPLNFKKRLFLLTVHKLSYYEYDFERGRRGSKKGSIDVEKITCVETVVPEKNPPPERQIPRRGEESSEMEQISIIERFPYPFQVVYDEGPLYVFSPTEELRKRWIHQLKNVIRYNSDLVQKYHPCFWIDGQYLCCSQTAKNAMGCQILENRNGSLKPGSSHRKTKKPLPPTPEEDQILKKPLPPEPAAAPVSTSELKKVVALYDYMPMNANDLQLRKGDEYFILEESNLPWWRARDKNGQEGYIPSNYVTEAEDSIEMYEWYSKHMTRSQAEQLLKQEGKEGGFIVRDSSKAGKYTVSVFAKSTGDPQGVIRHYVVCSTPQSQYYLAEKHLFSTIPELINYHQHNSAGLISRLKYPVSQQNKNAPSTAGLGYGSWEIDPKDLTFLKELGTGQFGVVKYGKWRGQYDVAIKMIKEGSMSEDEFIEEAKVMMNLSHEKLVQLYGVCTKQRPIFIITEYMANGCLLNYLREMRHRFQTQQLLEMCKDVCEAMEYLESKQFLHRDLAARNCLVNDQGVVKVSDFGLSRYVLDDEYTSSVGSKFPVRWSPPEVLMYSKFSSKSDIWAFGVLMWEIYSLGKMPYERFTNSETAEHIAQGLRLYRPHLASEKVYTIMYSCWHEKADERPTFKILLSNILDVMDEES

[3] = 0.05 nM BTK-Btn and 0.5 nM TR 178
[4] = 0.05 nM BTK-Btn and 0.5 nM TR 178, read-out: Low kinase IC50
[5] = 0.05 nM TR 178 and 0.5 nM BTK-Btn
[6] = 0.05 nM TR 178 and 0.5 nM BTK-Btn, read-out: Low tracer IC50

T1 sequence (Q06187 whole entry): as above

SMILES	IC50 (BTK-Btn [1])	Low kinase nH (BTK-Btn [2]; [3])	IC50 (BTK-Btn [2]; [4])	Low tracer nH (BTK-Btn [2]; [5])	IC50 (BTK-Btn [2]; [6])	Enzyme nH (hill slope of dose response curve) (BTK)	IC50 (BTK)
Nc1ncnc2c1ncn2[C@@H]1O[C@H](COP(=O)(O)OP(=O)(O)O)[C@@H](O)[C@H]1O [ADP]	46 ± 7 µM	0.9 ± 0.1	200 ± 40 µM	0.7 ± 0.2	40 ± 11 µM	1.0 ± 0.1	> 100 µM
N#CC(C#N)=Cc1cc(O)c(O)c(O)c1 [Tyrphostin 25]	48 ± 15 µM	0.8 ± 0.1	130 ± 10 µM	0.6 ± 0.2	45 ± 9 µM	0.6 ± 0.1	> 100 µM
CC(C)(C)n1nc(-c2ccc(Cl)cc2)c2c(N)ncnc21 [PP2]		1.8 ± 0.1		0.9 ± 0.1		1.1 ± 0.1	
CC(O)=C(C#N)C(=O)Nc1cc(Br)ccc1Br [LFM-A13, alpha-cyano-beta-hydroxy-beta-methyl-N-(2,5-dibromophenyl)propenamide]		1.3 ± 0.1		0.6 ± 0.2		1.1 ± 0.1	
